Assay results published in the CheMixHub viscosity set.

Assay: xn = mol fraction of the nth substance listed

CCC(=O)[O-].CC[NH+]1CCNCC1 + CCO
Conditions | viscosity [mPa·s]
298.15 K, 101 kPa, x2 = 0.3033 | 75.85

ClCCl + CCCCn1cc[n+](C)c1.F[P-](F)(F)(F)(F)F
298.15 K, 101 kPa
Conditions | viscosity [mPa·s]
x1 = 0.2451 | 88.7
x1 = 0.6462 | 9.51

CC(=O)O + CC(C)=O
viscosity [mPa·s], 101 kPa
Conditions | 293.15 K | 298.15 K | 303.15 K | 313.15 K
x1 = 0.0996 | – | 0.3496 | – | –
x1 = 0.13 | 0.3909 | – | 0.3546 | 0.3238
x1 = 0.2035 | – | 0.4046 | – | –
x1 = 0.222 | 0.4389 | – | 0.3976 | 0.3607
x1 = 0.302 | 0.4916 | – | 0.4411 | 0.3993
x1 = 0.3025 | – | 0.4636 | – | –
x1 = 0.4025 | 0.5632 | – | 0.5015 | 0.4518
x1 = 0.4049 | – | 0.535 | – | –
x1 = 0.4986 | – | 0.6098 | – | –
x1 = 0.5066 | 0.6549 | – | 0.5766 | 0.5138
x1 = 0.5973 | – | 0.6994 | – | –
x1 = 0.605 | 0.7515 | – | 0.6562 | 0.5817
x1 = 0.6968 | – | 0.8024 | – | –
x1 = 0.6994 | 0.8612 | – | 0.7482 | 0.6564
x1 = 0.8015 | – | 0.9213 | – | –
x1 = 0.805 | 0.9881 | – | 0.8527 | 0.7437
x1 = 0.9011 | 1.103 | – | 0.9472 | 0.8218
x1 = 0.9037 | – | 1.036 | – | –

CCCC[n+]1ccn(C)c1.N[C@@H](CCC(=O)O)C(=O)[O-] + CO
Conditions | viscosity [mPa·s]
313.15 K, 101 kPa, x1 = 0.7005 | 19.95

ClCCCl + CCOC(C)=O
303.15 K, 101.3 kPa
Conditions | viscosity [mPa·s]
x2 = 0.099 | 0.679
x2 = 0.2036 | 0.6354
x2 = 0.3005 | 0.602
x2 = 0.3976 | 0.5686
x2 = 0.4996 | 0.5353
x2 = 0.6025 | 0.5057
x2 = 0.6983 | 0.4784
x2 = 0.7998 | 0.4505
x2 = 0.9034 | 0.4236

C[Si]1(C)O[Si](C)(C)O[Si](C)(C)O[Si](C)(C)O1 + c1ccccc1
101 kPa
Conditions | viscosity [mPa·s]
298.15 K, x1 = 0.0341 | 0.6224
298.15 K, x1 = 0.0699 | 0.6486
298.15 K, x1 = 0.1407 | 0.7099
298.15 K, x1 = 0.2235 | 0.7944
298.15 K, x1 = 0.2938 | 0.875
298.15 K, x1 = 0.3751 | 0.9814
298.15 K, x1 = 0.4689 | 1.113
298.15 K, x1 = 0.6211 | 1.363
298.15 K, x1 = 0.6777 | 1.466
298.15 K, x1 = 0.751 | 1.608
298.15 K, x1 = 0.8434 | 1.804
298.15 K, x1 = 0.8753 | 1.88
298.15 K, x1 = 0.9028 | 1.939
298.15 K, x1 = 0.9291 | 2.01
308.15 K, x1 = 0.0886 | 0.5768
308.15 K, x1 = 0.3517 | 0.818
308.15 K, x1 = 0.602 | 1.127
308.15 K, x1 = 0.7741 | 1.39
308.15 K, x1 = 0.8544 | 1.527
308.15 K, x1 = 0.9373 | 1.682
318.15 K, x1 = 0.0888 | 0.507
318.15 K, x1 = 0.3526 | 0.714
318.15 K, x1 = 0.6036 | 0.971
318.15 K, x1 = 0.7763 | 1.186
318.15 K, x1 = 0.8562 | 1.298
318.15 K, x1 = 0.9134 | 1.393

CCNc1ccccc1 + CCC(C)O
viscosity [mPa·s], 101 kPa
Conditions | 303.15 K | 308.15 K
x1 = 0.0785 | 2.682 | 2.105
x1 = 0.1325 | 2.642 | 2.089
x1 = 0.1965 | 2.596 | 2.071
x1 = 0.2564 | 2.55 | 2.052
x1 = 0.3214 | 2.498 | 2.028
x1 = 0.3965 | 2.433 | 1.995
x1 = 0.4562 | 2.378 | 1.964
x1 = 0.5124 | 2.322 | 1.932
x1 = 0.5895 | 2.24 | 1.882
x1 = 0.6547 | 2.164 | 1.835
x1 = 0.7325 | 2.07 | 1.773
x1 = 0.8025 | 1.983 | 1.714
x1 = 0.8745 | 1.894 | 1.653

ClCCl + CCCCN
viscosity [mPa·s], 101 kPa
Conditions | x2 = 0.102 | x2 = 0.1371 | x2 = 0.2306 | x2 = 0.3081 | x2 = 0.435 | x2 = 0.5159 | x2 = 0.5926 | x2 = 0.6971 | x2 = 0.8192 | x2 = 0.9041
293.15 K | 0.441 | 0.443 | 0.448 | 0.452 | 0.46 | 0.466 | 0.471 | 0.477 | 0.486 | 0.493
298.15 K | 0.418 | 0.421 | 0.425 | 0.427 | 0.434 | 0.439 | 0.443 | 0.446 | 0.454 | 0.457
303.15 K | 0.401 | 0.403 | 0.406 | 0.409 | 0.414 | 0.417 | 0.42 | 0.424 | 0.429 | 0.433
308.15 K | 0.385 | 0.386 | 0.39 | 0.392 | 0.395 | 0.397 | 0.4 | 0.402 | 0.405 | 0.408

CC(=O)O + CCO
298.15 K, 101.33 kPa
Conditions | viscosity [mPa·s]
x2 = 0.0808 | 1.246
x2 = 0.2919 | 1.327
x2 = 0.3542 | 1.335
x2 = 0.5697 | 1.24
x2 = 0.6571 | 1.195
x2 = 0.75 | 1.15

C[Si]1(C)O[Si](C)(C)O[Si](C)(C)O[Si](C)(C)O1 + ClC(Cl)(Cl)Cl
101 kPa
Conditions | viscosity [mPa·s]
298.15 K, x1 = 0.1089 | 1.044
298.15 K, x1 = 0.1965 | 1.14
298.15 K, x1 = 0.289 | 1.245
298.15 K, x1 = 0.4288 | 1.407
298.15 K, x1 = 0.5841 | 1.595
298.15 K, x1 = 0.659 | 1.694
298.15 K, x1 = 0.8443 | 1.95
298.15 K, x1 = 0.9264 | 2.073
298.15 K, x1 = 0.9773 | 2.147
308.15 K, x1 = 0.1756 | 0.964
308.15 K, x1 = 0.3239 | 1.101
308.15 K, x1 = 0.5732 | 1.339
308.15 K, x1 = 0.729 | 1.493
308.15 K, x1 = 0.8636 | 1.646
308.15 K, x2 = 0.0183 | 1.786
318.15 K, x1 = 0.1779 | 0.844
318.15 K, x1 = 0.3249 | 0.956
318.15 K, x1 = 0.5816 | 1.148
318.15 K, x1 = 0.7307 | 1.27
318.15 K, x1 = 0.8652 | 1.388
318.15 K, x2 = 0.0179 | 1.498
